{
  "source": "patent US20250275946A1",
  "about": "“COMBINATION THERAPY FOR THE TREATMENT OF CANCER” (UNM RAINFOREST INNOVATIONS, priority 2021, published 2025)",
  "key": {"[1]": {"tested_on": "HCT116, SW480 or RKO cancer cells", "test": "Immunoblotting analysis in human colon-derived cancer cells", "type": "cell-based", "method": "(§1) Human HCT116, RKO, SW480, HEK293T and murine MC38 CRC cells were maintained at 37° C. in 5% CO2 and cultured in Dulbecco's modified Eagle medium (DMEM) supplemented with 10% fetal bovine serum (FBS) and 1% penicillin and streptomycin (VWR, Radnor, PA). HCT116 p53+/+ and p53−/− cells were a kind gift from Professor Bert Vogelstein at the Johns Hopkins University. For generating stable cell lines, MC38 cells were transfected with a mouse shTFRC plasmid (TRCN0000375695, Sigma, St. Louis, MO) or a mouse shPOLD1 plasmid (TRCN0000428858, Sigma), RKO cells were transfected with a human shPOLD1 plasmid (TRCN0000007924, Sigma) and selected with 1 μg/ml puromycin.\nCells and tumor tissues were lysed with radioimmunoprecipitation assay buffer. After incubation, cell extracts were centrifuged and the supernatant was collected for Bradford assay to quantify protein concentration by a BioTek Synergy HTX Multi-Mode Microplate Reader (BioTek, Winooski, VT). Equal amounts (20-50 μg) of protein were loaded for sodium dodecyl sulfate polyacrylamide gel electrophoresis (SDS-PAGE). The proteins inside the gels were transferred onto nitrocellulose membrane with a wet transfer method. The membranes were blocked with 3% milk for 1 hour. Primary antibodies were incubated overnight. Secondary antibodies were incubated for 1 hour. Antibodies for ferritin heavy chain (FTH1, #3998), IRP2 (#37135), active beta catenin (#8814), Anti-rabbit IgG HRP-linked Antibody (#7074) and Anti-mouse IgG HRP-linked Antibody (#7076) were from Cell signaling Technology (Danvers, MA). Primary antibodies for TFRC (sc-393719), HIF-1α, (sc-13515), HIF-2a (sc-13596), pS6 (sc-514033), pS6K (sc-8418), RRM2 (sc-398294), p-p53 (sc-377567), p53 (sc-6243), c-MYC (sc-40), GAPDH (sc-47724), Cyclin D1 (sc-718) and Actin (sc-8432) were from Santa Cruz Biotechnology (Dallas, TX). p-RPA2 (PA5-39809) was from Invitrogen (Carlsbad, CA). POLD1 (15646-1-AP), p-CHK1 (28805-1-AP), E2F1 (66515-1-Ig), Axin2 (20540-1-AP) and TNKS (18030-1-AP) were from Proteintech (Rosemont, IL)."}, "[2]": {"conditions": "humans; cited from earlier work"}, "B-family DNA polymerases": {"tested_on": "B-family DNA polymerases", "conditions": "aphidicolin combined with CHK1 inhibitors; cited from earlier work"}, "MC38 cells [3]": {"tested_on": "MC38 cells", "test": "MTT assay in MC38 cells", "type": "cell-based, murine", "conditions": "MC38, 10 μM DFX and/or 10 μM 5-FU, 48 hours, FIG. 7P", "method": "as §1\n(§2) Cells were plated at a concentration of 5×10^4 cells/mL in a 24 well plates. 125 μL 5 mg/mL MTT (Sigma, MO) was added to each plate and incubated for 30 min. Dimethyl sulfoxide (DMSO) was added and absorbance was measured at 570 nm using a BioTek Synergy HTX Multi-Mode Microplate Reader."}, "MC38 cells [4]": {"tested_on": "MC38 cells", "test": "Immunoblotting analysis in MC38 cells", "type": "cell-based, murine", "conditions": "MC38, 10 μM DFX and/or 10 μM 5-FU, 48 hours, FIG. 7Q", "method": "as §1\nCells and tumor tissues were lysed with radioimmunoprecipitation assay buffer. After incubation, cell extracts were centrifuged and the supernatant was collected for Bradford assay to quantify protein concentration by a BioTek Synergy HTX Multi-Mode Microplate Reader (BioTek, Winooski, VT). Equal amounts (20-50 μg) of protein were loaded for sodium dodecyl sulfate polyacrylamide gel electrophoresis (SDS-PAGE). The proteins inside the gels were transferred onto nitrocellulose membrane with a wet transfer method. The membranes were blocked with 3% milk for 1 hour. Primary antibodies were incubated overnight. Secondary antibodies were incubated for 1 hour. […]"}, "[5]": {"tested_on": "xenografts from MC38 cells", "test": "Subcutaneous MC38 xenograft combination therapy in C57BL/6 mice", "type": "in vivo", "conditions": "20 mg/kg DFX every other day, 1 mg/kg 5-FU daily, or combination, FIG. 7R", "quoted_text": "For subcutaneous xenograft study, 1×10^6 syngeneic MC38 cells with Tfrc or Pold1 knockdown were injected into the flanks of C57BL/6 mice. Two weeks later, mice were sacrificed and tumors were collected. For combination therapy, when tumors are palpable at one week after subcutaneous injection of MC38 cells, C57BL/6 mice were treated with vehicle, 20 mg/kg DFX for every other day, 1 mg/kg 5-fluorouracil (5-FU) daily, or the combination of DFX and 5-FU."}, "SW480 cells": {"tested_on": "SW480 cells", "test": "MTT assay in SW480 cells", "type": "cell-based, human", "conditions": "48 hours", "method": "as §1, §2"}, "cancer cells": {"tested_on": "cancer cells", "conditions": "cited from earlier work"}, "[6]": {"tested_on": "advanced hepatocellular carcinoma", "conditions": "cohort of 10 advanced hepatocellular carcinoma; cited from earlier work"}, "[7]": {"tested_on": "patient-derived tumor colonoids", "test": "RNA-seq analysis of patient-derived tumor colonoids treated with DFO", "type": "cell-based, human", "conditions": "DFO 100 μM in KGMG medium, 4 days", "method": "The adenoma colonoids culture was described previously. See Xue, et al., Cell Metab, 2016; 24: pp. 447-461). The culture plates were placed in a 37° C. incubator for 30 min to solidify the Matrigel, followed by the addition of 1 mL serum-free Keratinocyte Growth Media Gold (KGMG, Catalogue: 00195769, Lonza, Basel, Switzerland). After 24 hours of plating, colonoids were treated with DFO (0 or 100 μM) in KGMG for 4 days with fresh media change every other day. At the end of the experiment, culture media was aspirated off, and colonoids were lysed with Trizol to extract RNA.\nRNA sequencing libraries were prepared using the TruSeq RNA library prep kit v2 (Illumina) following the manufacturer's recommended protocol. The libraries were sequenced using single-end 50-cycle reads on a HiSeq 4000 sequencer (Illumina) at the University of Michigan DNA Sequencing Core Facility. Raw sequencing read quality was assessed utilizing FastQC. Reads were aligned to the reference human transcriptome (UCSC) using STAR 2.5.2a. Default parameters were used for the alignment, with the exception of “--outFilterMultimapNmax 10” and “--sjdbScore 2”. Expression quantification and differential expression analysis between DFO and control tumor colonoids were conducted using CuffDiff v 2.1.1 using default settings. […]"}, "[8]": {"conditions": "mice; cited from earlier work"}, "[9]": {"conditions": "cited from earlier work"}, "MC38 cells [10]": {"tested_on": "MC38 cells", "test": "Ferro-Orange staining of cellular ferrous iron", "type": "cell-based, murine", "conditions": "FIG. S6D", "method": "Cells (2×10^5 cells/well) were plated into 24 well plates. After seeding, pre-warmed DMEM containing 0.5 μM ferroOrange (dojindo, Rockville, MD), was incubated at 37° C. for 30 min. After incubation, the cell images were taken. Representative images were taken using the RFP channel of an Invitrogen™ EVOS™ FL Auto Imaging System (Thermo Fisher Scientific, Waltham, MA). Fluorescence intensity was quantified using a SpectraMax M2 Microplate Reader (Molecular Devices, Radnor, PA) at excitation 543 nm and emission 580 nm. The intensity was normalized with protein concentrations."}},
  "note": "Like-named read-outs stand apart in the source and are kept apart here.",
  "data": [
    {"compound": "CCc1ccc(/C=C2/SC(=S)NC2=O)cc1", "note": "[10058-F4]", "values": [
      {"measurement": "E2F1 and POLD1 protein", "setting": "[1]; SW480 cells, c-Myc inhibitor overnight, FIG. S5G", "value": "reduced"}
    ]},
    {"compound": "C[C@@]1(CO)[C@H](O)CC[C@@]2(C)[C@H]1CC[C@H]1C[C@@H]3C[C@@]12CC[C@]3(O)CO", "note": "[aphidicolin]", "values": [
      {"measurement": "toxicity", "setting": "[2]", "value": "too toxic to be used in humans"},
      {"measurement": "cancer cell proliferation", "setting": "B-family DNA polymerases", "value": "synergistic inhibition"}
    ]},
    {"compound": "Oc1nc(-c2ccc(C(F)(F)F)cc2)nc2c1CSCC2", "note": "[XAV939]", "values": [
      {"measurement": "suppressive effect of DFO on c-Myc, E2F1, POLD1 and Cyclin D1", "setting": "[1]; SW480 cells, DFO and/or XAV939, FIG. 5N", "value": "potentiated"},
      {"measurement": "expression of TNKS and Axin2", "setting": "[1]; SW480 cells, FIG. 5N", "value": "increased"},
      {"measurement": "iron-repressed Axin2", "setting": "[1]; SW480 cells, FS and/or XAV939, FIG. 5O", "value": "rescued"},
      {"measurement": "c-Myc, E2F1, POLD1 and Cyclin D1 protein", "setting": "[1]; SW480 cells, even with iron supplementation, FIG. 5O", "value": "suppressed"}
    ]},
    {"compound": "O=c1[nH]cc(F)c(=O)[nH]1", "note": "[5-FU, 5-fluorouracil]", "values": [
      {"measurement": "growth suppressive effect of DFX in vitro (MTT)", "setting": "MC38 cells [3]", "value": "potentiated"},
      {"measurement": "DDR of DFX (immunoblotting)", "setting": "MC38 cells [4]", "value": "potentiated"},
      {"measurement": "growth suppressive effect of DFX in vivo (tumor weight)", "setting": "[5]", "value": "potentiated"}
    ]},
    {"compound": "CNCc1ccc(-c2cc(-c3nc(-c4ccc(S(=O)(=O)C(C)C)cc4)cnc3N)on2)cc1", "note": "[VE-822]", "values": [
      {"measurement": "synergistic effect on cell growth (MTT)", "setting": "SW480 cells; SW480 and MC38 cells, 10 μM DFX, 10 uM VE-822 or 100 nM Prexasertib, FIG. S7G, S7H", "value": "synergistic effect was further validated"}
    ]},
    {"compound": "COc1cccc(OCCCN)c1-c1cc(Nc2cnc(C#N)cn2)n[nH]1", "note": "[Prexasertib]", "values": [
      {"measurement": "synergistic effect on cell growth (MTT)", "setting": "SW480 cells; SW480, 10 μM DFO and/or 100 nM Prexasertib, FIG. S7F", "value": "synergistic effect was further validated"}
    ]},
    {"compound": "c1ccc(CNC2CC(NCc3ccccn3)CC(NCc3ccccn3)C2)nc1", "note": "(stereo not drawn) [tachpyridine, N,N′,N″-tris(2-pyridylmethyl)-cis,cis-1,3,5-triaminocyclohexane]", "values": [
      {"measurement": "sensitivity to ionizing radiation induced DNA damage", "setting": "cancer cells; cancer cells (not noncancer cells)", "value": "sensitizes cancer cells"},
      {"measurement": "cell cycle", "setting": "cancer cells; via ATR-dependent activation of CHK1", "value": "induces G2 cell cycle arrest"}
    ]},
    {"compound": "CC(=O)N(O)CCCCCNC(=O)CCC(=O)N(O)CCCCCNC(=O)CCC(=O)N(O)CCCCCN", "note": "[DFO, deferoxamine]", "values": [
      {"measurement": "severe adverse events", "setting": "[6]", "value": "without severe adverse events"},
      {"measurement": "decrease of POLD1 gene expression (RNA-seq)", "setting": "[7]", "value": 4.31, "unit": "fold"},
      {"measurement": "decrease of RRM2 gene expression (RNA-seq)", "setting": "[7]", "value": 3.28, "unit": "fold"},
      {"measurement": "circulation half-life", "setting": "[8]", "value": "~5", "unit": "min"},
      {"measurement": "circulation half-life", "setting": "[9]; humans", "value": "approximately 20 min"},
      {"measurement": "circulation half-life", "setting": "[9]; in vivo", "value": "extremely short"}
    ]},
    {"compound": "ferrous sulfate [FS]", "values": [
      {"measurement": "orange fluorescence signal (cellular ferrous iron)", "setting": "MC38 cells [10]", "value": "greatly increased"},
      {"measurement": "rescue of DFO-decreased POLD1", "setting": "[1]; HCT116 cells, 100 μM DFO and different doses of FS, FIG. 5E", "value": "can rescue"}
    ]}
  ]
}
